# Reference: US5444056A, “Aminoalkoxyphenyl derivatives, process for their preparation and compositions containing them” (Sanofi, priority 1989, dated 1995)
# Structures can show the parent of a compound that is named as a salt.
# Tests used:
# [1] = system: contractile response to potassium-induced depolarization on isolated rat aorta; assay: Calcium inhibitory properties: antagonism of contractile response to potassium-induced depolarization on isolated rat aorta; design: species or system rat (male Wistar); details: percent of maximal contraction before incubation, 60 min
# Description: It is well established that the depolarization of a smooth muscle membrane by potassium makes the latter permeable to extracellular calcium and induces muscle contraction. Consequently, the measurement of inhibition of the contractile response to depolarization by potassium or the measurement of relaxation of the tonic contraction on potassium depolarization can provide an evaluation of the potency of a compound as an inhibitor of the membrane permeability to Ca^++ ions. The technique used is the following: The aorta is removed from male Wistar rats weighing about 300 g and cut into strips approximately 40 mm long and 3 mm wide. These fragments are placed in a 25 ml isolated organ bath containing modified Krebs-bicarbonate solution (112 mM NaCL; 5 mM KCl; 25 mM NaHCO3; 1 mM KH2 PO4; 1.2 mM MgSO4; 2.5 mM CaCl2; 11.5 mM glucose, made up to 1000 ml with distilled water) maintained at 37° C. and through which a stream of carbon dioxide is passed. The preparation is connected to a force microsensor and the contractile response is recorded after amplification on a recorder. A tension of 2g is applied to the preparation. This latter is maintained in the modified Krebs-bicarbonate solution for 60 minutes, and then contractions are induced by replacing the Krebsbi-carbonate solution by a Krebs-potassium solution (17 mM NaCl; 100 mM KCl; 25 mM NaHCO3; 1 mM KH2 PO4; 1.2 mM MgSO4; 2.5 mM CaCl2; 11.5 mM glucose; made up to 1000 ml with distilled water). When the contractile response of the preparation has become reproducible, a given amount of the compound of the invention is introduced into the bath. Sixty minutes later a new spasm is induced by potassium depolarization. The results obtained on the aorta under investigation are then expressed in percent of the maximal contractional effect before incubation with the test substance. As examples, the following results were obtained, the compounds of formula (1) being in the form of the free base, the hydrochloride, oxalate or fumarate.
# [2] = system: increase in blood pressure induced by epinephrine (anti-α effect); assay: Anti-α effect: reduction of epinephrine-induced increase in blood pressure in anesthetized atropinized dog; format: in vivo; design: key: +: for a reduction <50%; ++: for a reduction ≥50%; +++: for an almost complete reduction
# Experimental: The aim of this test is to determine the capacity of the compounds of the invention to reduce the increase in blood pressure induced by epinephrine (anti-αeffect) and the acceleration of the heart rate induced by isoprenaline (anti-βeffect) in the dog previously anesthetized with pentobarbital and atropinized. First, are determined for each dog the dose of epinephrine (between 3 and 10 μg/kg) which causes a reproducible increase in arterial blood pressure of about 133.10^2 Pa and the dose of isoprenaline (1 to 2 μg/kg) which causes a reproducible increase in the heart rate of about 70 beats/minute. The doses of epinephrine and isoprenaline thus determined are injected alternatively every ten minutes and after the two consecutive reference responses have been obtained, a quantity of the test compound is administered by the intravenous route. The percentage reduction of the hypertension caused by the test compound in comparison with the reference hypertension previously obtained (about 100 mm Hg) is recorded. In both cases, the results of the reduction in arterial pressure and heart rate are expressed as follows: […]
Structure (SMILES),"% maximal contractional effect ([1]; 10^-8 M, 0.01 µM)","% maximal contractional effect ([1]; 10^-7 M, 0.1 µM)","% maximal contractional effect ([1]; 10^-9 M, 0.001 µM)",other results
"CCCCN(CCCC)CCCOc1ccc(S(=O)(=O)c2c(C(C)C)cn3ccccc23)cc1 [B, reference compound]",61%,–,–,"Anti-α effect ([2]; intravenous, 0,5 mg/kg): ++ (for a reduction ≥50%)"
"COc1cc(OC)c(C(C)C)c(S(=O)(=O)c2ccc(OCCCN(C)CCc3ccc(OC)c(OC)c3)cc2)c1.O=C(O)C(=O)O [Ex.6, 4-[-3(N-methyl N-3,4-dimethoxy-β-phenethylamino)propox]phenyl (2-isopropyl 3,5-dimethoxy phenyl) sulfone oxalate]","63,4%","13,1%","85,7%",–
"CCCCc1oc2ccc([N+](=O)[O-])cc2c1S(=O)(=O)c1ccc(OCCCN(C)CCc2ccc(OC)c(OC)c2)cc1 [Ex. 1, 2-n-butyl 3-{4-[3-(N-methyl N-3,4-dimethoxy-β-phenethylamino)propoxy]benzenesulfonyl} 5-nitro benzofuran hydrochloride]",–,"70,1%",–,"% maximal contractional effect ([1]; 10^-6 M, 1 µM): 45,4%; Anti-α effect ([2]; intravenous, 3,23 mg/kg): +++"
"CCCCc1oc2ccc(N)cc2c1S(=O)(=O)c1ccc(OCCCN(C)CCc2ccc(OC)c(OC)c2)cc1 [Ex. 3, 5-amino 3-{4-[3-(N-methyl N-3,4-dimethoxy-β-phenethylamino)propoxy]benzenesulfonyl} 2-n-butyl benzofuran dihydrochloride]",–,–,–,"Anti-α effect ([2]; intravenous, 1,31 mg/kg): +++"
"CCCCc1oc2ccc(NS(C)(=O)=O)cc2c1S(=O)(=O)c1ccc(OCCCN(C)CCc2ccc(OC)c(OC)c2)cc1 [Ex. 4, 3-{4-[3-(N-methyl N-3,4-dimethoxy-β-phenethylamino)propoxy]benzenesulfonyl} 2-n-butyl 5-methane sulfonamido benzofuran hydrogen oxalate]",–,"92,7%",–,"% maximal contractional effect ([1]; 10^-6 M, 1 µM): 49,9%"
"CCCCc1oc2ccc(Cl)cc2c1S(=O)(=O)c1cc(Br)c(OCCCN(C)CCc2ccc(OC)c(OC)c2)c(Br)c1 [Ex. 7, 5-chloro 2-n-butyl 3-{4-[3-(N-methyl N-3,4-dimethoxy-β-phenethylamino)propoxy] 3,5-dibromobenzenesulfonyl}benzofuran hydrogen oxalate]",–,"76,8%",–,"% maximal contractional effect ([1]; 10^-6 M, 1 µM): 80,3%"
"COc1ccc2[nH]c(C)c(Sc3ccc(OCCCN(C)CCc4ccc(OC)c(OC)c4)cc3)c2c1 [Ex. 9, 3-{4-[3-(N-methyl N-3,4-dimethoxy-β-phenethylamino)propoxy]phenylthio} 5-methoxy 2-methyl indole hydrogen oxalate]","84,4%","70,4%",88%,–
"COc1ccc(CCN(C)CCCOc2ccc(S(=O)(=O)c3c(C(C)C)n(CCN(C)C)c4ccccc34)cc2)cc1OC [Ex. 11, 3-{4-[3-(N-methyl N-3,4-dimethoxy-β-phenethylamino)propoxy]benzenesulfonyl} 1-dimethylaminoethyl 2-isopropyl indole dioxalate]","85,9%","66,7%",–,"Anti-α effect ([2]; intravenous, 1,6 mg/kg): ++ (for a reduction ≥50%)"
"CCN(CC)CCn1c(C(C)C)c(S(=O)(=O)c2ccc(OCCCN(C)CCc3ccc(OC)c(OC)c3)cc2)c2ccccc21 [Ex. 12, 3-{4-[3-(N-methyl N-3,4-dimethoxy-β-phenethylamino)propoxy]benzenesulfonyl} 1-diethylaminoethyl 2-isopropyl indole dioxalate]","84,5%","74,9%","90,4%",–
"COc1ccc(CCNCCCOc2ccc(S(=O)(=O)c3c(C(C)C)c(C)n4ccccc34)cc2)cc1OC [Ex. 14, 2-isopropyl 3-methyl 1-{4-[3-(N-3,4-dimethoxy-β-phenethylamino)propoxy]benzenesulfonyl}indolizine hydrogen oxalate]",–,–,–,"Anti-α effect ([2]; intravenous, 0,12 mg/kg): +++"
"COc1ccc(CCN(C)CCCOc2ccc(S(=O)(=O)c3c(C(C)C)n(C)c4cc(C)ccc34)cc2)cc1OC [Ex. 45, 1-methyl 2-isopropyl 3-{4-[3-(N-methyl N-3,4-dimethoxy-β-phenethylamino)propoxy]benzenesulfony} 6-methyl indole hydrogen oxalate]","75,2%","15,7%","83,2%",–
"CCCCN(CCCC)CCCOc1ccc(S(=O)(=O)c2c(C(C)C)n(C)c3cc(C)ccc23)cc1.O=C(O)C(=O)O [Ex. 46, 1-methyl 2-isopropyl 3-{4-[3-(di-n-butylamino)propoxy]benzenesulfonyl} 6-methyl indole hydrogen oxalate]","67,2%","41,7%","79,5%",–
"CCCCN(CCCC)CCCOc1ccc(S(=O)(=O)c2c(C)nn3c(C)cccc23)cc1 [Ex. 48, 3-{4-[3-(di-n-butylamino)propoxy]benzenesulfonyl} 2,7 dimethyl pyrazolo[1,5-]pyridine hydrogen oxalate]","77,1%",–,"85,7%",–
"Cc1nn2cccc(C)c2c1S(=O)(=O)c1ccc(OCCCN(C)C2CCCc3ccccc32)cc1 (stereo not shown) [Ex. 51, 3-{4-[3-(N-methyl N-1,2,3,4-tetrahydronapth-1-ylamino)propoxy]benzenesulfonyl} 2,4-dimethyl pyrazolo[1,5-a]pyridine hydrogen oxalate]","67,1%",–,85%,–
"COc1ccc(CCN(C)CCCOc2ccc([S+]([O-])c3c(C(C)C)c4cccc(C)c4n3C)cc2)cc1OC (stereo not drawn) [Ex. 57, (3-isopropyl 1,7-dimethylindol-2-yl)4-[3-(N-methyl N-3,4-dimethoxy-β-phenethylamino)propoxy]phenyl sulfoxide hydrogen oxalate]","76,4%","56,9%","89,9%",–
"COc1ccc(CCN(C)CCCOc2ccc(S(=O)(=O)c3c(C(C)C)c4cc(Cl)ccc4n3C)cc2)cc1OC [Ex. 59, 2-{4-[3-(N-methyl N-3,4-dimethoxy-β-phenethylamino)propoxy]benzenesulfonyl} 5-chloro 3-isopropyl 1-methyl indole]","55,4%","41,4%","68,4%","% maximal contractional effect ([1]; 10^-10 M, 0.0001 µM): 81,5%"
"COc1ccc2c(c1)c(C(C)C)c(S(=O)(=O)c1ccc(OCCCN(C)CCc3ccc(OC)c(OC)c3)cc1)n2CCCN(C)CCc1ccc(OC)c(OC)c1 [Ex. 63, 2-{4-[3-(N-methyl N-3,4-dimethoxy-β-phenethylamino)propoxy]benzenesulfonyl} 1-[3-(N-methyl N-3,4-dimethoxy-β-phenethylamino)propyl] 3-isopropyl 5-methoxy indole oxalate]","82,8%","69,7%","90,8%",–
"CCc1nn2cccc(C)c2c1S(=O)(=O)c1ccc(OCCCN(C)CCc2ccc(OC)c(OC)c2)cc1 [Ex. 78, 3-{4-[3-(N-methyl N-3,4-dimethoxy-β-phenethylamino)propoxy]benezenesulfonyl} 2-ethyl 4-methyl pyrazolo[1,5-a]pyridine hydrogen oxalate]","17,5%",–,"72,9%","% maximal contractional effect ([1]; 10^-10 M, 0.0001 µM): 78,6%"
"CCc1nn2cc(C)ccc2c1S(=O)(=O)c1ccc(OCCCN(C)CCc2ccc(OC)c(OC)c2)cc1 [Ex. 81, 3-{4-[3-(N-methyl N-3,4-dimethoxy-β-phenethylamino)propoxy]benzenesulfonyl} 2-ethyl 6-methyl pyrazolo[1,5-a]pyridine hydrogen oxalate]","78,1%",–,"85,3%","% maximal contractional effect ([1]; 10^-10 M, 0.0001 µM): 91,4%"
